Results taken from patent publication US20230357271A1, “MACROCYCLIC COMPOUND” (Asahi Kasei Pharma Corporation, priority 2020, published 2023).

Tests used:
human IRAK-4 = human IRAK-4 (Homo sapiens (Human), UniProt Q9NWZ3); assay: Measurement of human IRAK-4 inhibitory activity (TR-FRET); format: biochemical; conditions: 1 nM IRAK-4, 0.5 µM peptide substrate, 10 µM ATP, 23° C., 30 minutes
Method: For the measurement of the activity of the human IRAK-4 (Invitrogen, Cat. PV3362), phosphorylation of the IRAK-4 peptide substrate (biotin-KKKKRFSFKKSFKC) by the enzyme in the presence of 10 µM ATP (Sigma-Aldrich, Cat. A7699) was measured by the TR-FRET method. The enzymatic reaction was performed in a reaction buffer containing 50 mM HEPES (pH 7.2), 1 mM DTT, 0.1 mM Na3VO4, 5 mM MgCl2, 1 mM MnCl2, and 0.1% bovine serum albumin. For the measurement of the IRAK-4 inhibitory activity, a test compound was added to the reaction buffer containing 1 nM IRAK-4, 0.5 µM peptide substrate, and 10 µM ATP, and the mixture was incubated at 23° C. for 30 minutes. Then, a detection solution containing an antibody labeled with europium cryptate (0.3 µg/mL, the antibody was prepared by using the IRAK-4 peptide substrate as the antigen), streptavidin-XL665 (2 µg/mL, CisBio, Cat. 610SAXLB), 50 mM HEPES (pH 7.2), 0.1% BSA, 120 mM KF, and 66.7 mM EDTA (all the concentrations of the reagents are final concentrations) was added to terminate the reaction, and then the mixture was further incubated at 23° C. for 60 minutes. Fluorescence intensity was measured at wavelengths of 665 nm and 620 nm with a microplate reader, and the enzymatic activity was calculated as the ratio of fluorescence intensities at 665 nm and 620 nm (665 nm/620 nm).
When the measurement was performed in multiplicate, the results are represented with average values.

[1] = system: human acute monocytic leukemia cell strain THP-1; assay: LPS-stimulated TNFα production inhibition test using THP-1 cells; format: cell-based; conditions: LPS 2.5 ng/mL, TNFα by HTRF
Method: By the THP-1 assay, influence of a test compound on the TNFα production induced by LPS stimulation can be evaluated. The THP-1 cells (ATCC, Cat. TIB-202) were inoculated on a 96-well plate at a density of 1 × 10^5 cells/160 µL/well, a test compound was added in a volume of 20 µL, and the plate was incubated at 37° C. for 1 hour in a 5% CO2 incubator. Then, LPS in a volume of 20 µL (final concentration 2.5 ng/mL, Sigma, Cat. L2630) was added, and the plate was further incubated for 4 hours. After the incubation, the plate was centrifuged, and 100 µL of the supernatant was taken from each well, and used for evaluation of the amount of TNFα using HTRF (Cisbio, Cat. 62TNFPEB). In the measurement of the amount of TNFα, the supernatant was diluted twice with the medium, and then added to wells of a 384-well plate in a volume of 10 µL, then anti-TNFα-cryptate (5 µL), and anti-TNFα-XL665 (5 µL) were added, and the plate was left standing overnight. The fluorescence intensity ratio for the wavelengths of 620 and 665 nm (620 nm/665 nm) was measured with a microplate reader, and the amount of TNFα in the supernatant was calculated by using a calibration curve. The TNFα production suppression ratio observed with no addition of LPS was defined to be 100%, the TNFα production suppression ratio observed with no addition of the test compound was defined to be 0%, and IC50 of the test compound was calculated by using the 4-parameter logistic model of the data analysis software XLfit (ID Business Solutions Ltd.).
When the measurement was performed in multiplicate, the results are represented with average values. The values were rounded to the fourth decimal place.

human IRAK-4, sequence (Q9NWZ3 whole entry): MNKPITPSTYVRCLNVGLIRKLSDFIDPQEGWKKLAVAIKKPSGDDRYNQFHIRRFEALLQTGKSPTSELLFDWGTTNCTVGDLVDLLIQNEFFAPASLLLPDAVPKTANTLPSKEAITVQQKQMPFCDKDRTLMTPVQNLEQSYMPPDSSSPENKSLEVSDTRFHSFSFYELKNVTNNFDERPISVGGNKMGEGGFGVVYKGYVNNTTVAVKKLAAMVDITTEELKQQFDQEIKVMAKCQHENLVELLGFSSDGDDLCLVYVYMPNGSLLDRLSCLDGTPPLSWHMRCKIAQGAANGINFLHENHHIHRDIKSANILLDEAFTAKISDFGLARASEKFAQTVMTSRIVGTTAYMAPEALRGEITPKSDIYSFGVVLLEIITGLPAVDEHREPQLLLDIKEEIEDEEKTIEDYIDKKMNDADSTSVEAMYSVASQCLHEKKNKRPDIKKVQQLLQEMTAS

IC50 (human IRAK-4) [nM] | IC50 ([1]; Homo sapiens, THP-1, 4 h) [µM] | IC50 ([1]; 4 hours) [µM] | Compound
2.23 | 0.064 |  | CN1CC[C@H]2C[C@H]1C(=O)OCCCOc1c(-c3cnc(CO)nc3)ccc3ncc(cc13)N2 [a-02-15]
2.29 | 0.117 |  | CN1CC[C@H]2C[C@H]1C(=O)NCCCOc1c(-c3cnc(COCC4CC4)nc3)ccc3ncc(nc13)N2 [a-01-21]
1.63 | 0.028 |  | CN1CC[C@H]2C[C@H]1C(=O)NCCCOc1c(-c3ccns3)ccc3ncc(nc13)N2 [a-01-01]
0.89 | 0.118 |  | CN1CC[C@H]2C[C@H]1C(=O)NCC(F)(F)COc1c(-c3cnc(CO)s3)ccc3ncc(nc13)N2 [a-01-22]
2.53 | 0.05 |  | CCCOCc1ncc(-c2ccc3ncc4nc3c2OCC(F)COC(=O)[C@@H]2C[C@H](CCN2C)N4)cn1 (stereo partly shown) [a-01-06]
8.86 | 0.182 |  | CC1CNC(=O)[C@@H]2C[C@H](CCN2C)Nc2cnc3ccc(-c4cncnc4)c(c3n2)OC1 (stereo partly shown) [a-01-36]
1.28 | 0.064 |  | CN1CC[C@H]2C[C@H]1C(=O)NCCCOc1c(-c3cncnc3)ccc3ncc(nc13)N2 [a-01-09]
2.51 | 0.013 |  | O=C1OCCCOc2c(-c3cnc(CO[C@H]4CCC[C@@H]4O)nc3)ccc3ncc(cc23)N[C@H]2CCN[C@H]1C2 [a-02-03]
1.84 | 0.104 |  | CN1CCCOc2c(-c3cnc(CO)s3)ccc3ncc(nc23)N[C@H]2CCN(C)[C@@H](C2)C1=O [a-01-18]
4.25 | 0.145 |  | CCCOCc1ncc(-c2ccc3ncc4nc3c2OCCCCCNC(=O)[C@@H]2C[C@H](CCN2C)N4)cn1 [a-01-27]
4.79 | 0.17 |  | Cc1ncc(-c2ccc3ncc4nc3c2OCC2(CC2)COC(=O)[C@@H]2C[C@H](CCN2C)N4)cn1 [a-01-33]
2.2 | 0.135 |  | Cc1ncc(-c2ccc3ncc4cc3c2OCCCNC(=O)[C@@H]2C[C@H](CCN2C)N4)cn1 [a-02-21]
13.2 | 0.378 |  | CCCOCc1ncc(-c2ccc3ncc4cc3c2CCCCNC(=O)[C@@H]2C[C@H](CCN2C)N4)cn1 [a-02-24, (3^2S,3^4S)-3^1-Methyl-1^6-(2-(propoxymethyl)pyrimidin-5-yl)-2,5-diaza-1(3,5)-qunolina-3(4,2)-piperidinacyclononaphan-4-one]
3.21 | 0.117 |  | Cc1ncc(-c2ccc3ncc4cc3c2OCCCOC(=O)[C@@H]2C[C@H](CCN2C)N4)cn1 [a-02-20]
0.93 | 0.047 |  | O=C1OCCCOc2c(-c3cnc(CO)nc3)ccc3ncc(cc23)N[C@H]2CCN[C@H]1C2 [a-02-12]
3.28 | 0.227 |  | COCc1ncc(-c2ccc3ncc4nc3c2OCCCNC(=O)[C@@H]2C[C@H](CCN2C)N4)cn1 [a-01-45]
1.49 | 0.057 |  | CCCOCc1ncc(-c2ccc3ncc4nc3c2OCCCNC(=O)[C@@H]2C[C@H](CCN2C)N4)cn1 [a-01-07, (3^2S,3^4S)-3^1-Methyl-1^7-(2-(propoxymethyl)pyrimidin-5-yl)-9-oxa-2,5-diaza-1(2,8)-quinoxalina-3(4,2)-piperidinacyclononaphan-4-one]
2.95 | 0.076 |  | CN1CC[C@H]2C[C@H]1C(=O)NCCCOc1c(-c3cnc(COC4CCC4)nc3)ccc3ncc(nc13)N2 [a-01-13]
1.21 | 0.124 |  | CCCOCc1ncc(-c2ccc3ncc4nc3c2OCC(F)(F)CNC(=O)[C@@H]2C[C@H](CCN2C)N4)cn1 [a-01-23]
6.61 | 0.246 |  | Cc1ncc(-c2ccc3ncc4nc3c2OCCCN(C)C(=O)[C@@H]2C[C@H](CCN2C)N4)cn1 [a-01-42]
5.63 | 0.023 |  | CN1CC[C@H]2C[C@H]1C(=O)OCCCOc1c(-c3cnc(COCC(O)C4CC4)nc3)ccc3ncc(cc13)N2 (stereo partly shown) [a-02-04]

IC50 (human IRAK-4) [nM] | IC50 ([1]; Homo sapiens, THP-1, 4 h) [µM] | IC50 ([1]; 4 hours) [µM] | Compound
10 |  | 0.293 | Cc1ncc(-c2ccc3ncc4nc3c2OCC(F)CNC(=O)[C@@H]2C[C@H](CCN2C)N4)cn1 (stereo partly shown) [a-01-41]
1.41 |  | 0.142 | CCCOCc1ncc(-c2ccc3ncc4nc3c2OCC(F)CNC(=O)[C@@H]2C[C@H](CCN2C)N4)cn1 (stereo partly shown) [a-01-26]
1.73 | 0.08 |  | CN1CC[C@H]2C[C@H]1C(=O)NCCCOc1c(-c3cnsc3)ccc3ncc(nc13)N2 [a-01-14]
14.8 | 0.253 |  | CN1CC[C@H]2C[C@H]1C(=O)NCC(C)(C)COc1c(-c3cncnc3)ccc3ncc(nc13)N2 [a-01-40]
1.76 | 0.066 |  | Cc1ncc(-c2ccc3ncc4cc3c2/C=C/CCNC(=O)[C@@H]2CC(CC(C)N2C)N4)cn1 (stereo in doubt) [a-02-17, (3^2S,E)-3^1,3^6-Dimethyl-1^6-(2-methylpyrimidin-S-yl)-2,5-diaza-1 (3,5)-qunolina-3(4,2)-piperidinacyclononaphan-8-en-4-one]
5.12 | 0.204 |  | CN1CC[C@H]2C[C@H]1C(=O)NCCCCCOc1c(-c3cncnc3)ccc3ncc(nc13)N2 [a-01-39]
2.48 | 0.14 |  | Cc1ncc(-c2ccc3ncc4nc3c2OCCCNC(=O)[C@@H]2C[C@H](CCN2C)N4)cn1 [a-01-24]
2.84 | 0.178 |  | CCCOCc1ncc(-c2ccc3ncc4nc3c2OCCCNC(=O)[C@@H]2C[C@H](CCN2CC)N4)cn1 [a-01-35]
2.8 | 0.162 |  | CN1CC[C@H]2C[C@H]1C(=O)NCCCCOc1c(-c3cncnc3)ccc3ncc(nc13)N2 [a-01-30]
9.7 | 0.716 |  | Cc1ncc(-c2ccc3ncc4cc3c2OCC(F)CNC(=O)C2(C)CC(CCN2C)N4)cn1 (stereo not shown) [a-02-23, 7-Fluoro-3^1,3^2-dimethyl-1^6-(2-methylpyrimidin-5-yl)-9-oxa-2,5-diaza-1 (3,5)-qunolina-3(4,2)-piperidinacyclononaphan-4-one]
2.36 | 0.21 |  | CN1CC[C@H]2C[C@H]1C(=O)NCC1(CCC1)COc1c(-c3cnc(CO)s3)ccc3ncc(nc13)N2 [a-01-44]
2.04 | 0.033 |  | Cc1ncc(-c2ccc3ncc4cc3c2OCCCOC(=O)C2CC(CC(C)N2C)N4)cn1 (stereo not shown) [a-02-07]
3.04 | 0.099 |  | CCC(O)COCc1ncc(-c2ccc3ncc4nc3c2OCCCNC(=O)[C@@H]2C[C@H](CCN2C)N4)cn1 (stereo partly shown) [a-01-17]
1.47 | 0.063 |  | CN1CC[C@H]2C[C@H]1C(=O)NCC(F)(F)COc1c(-c3cncnc3)ccc3ncc(nc13)N2 [a-01-08]
1.75 | 0.075 |  | CCCOCc1ncc(-c2ccc3ncc4nc3c2OCCC(C)CNC(=O)[C@@H]2C[C@H](CCN2C)N4)cn1 (stereo partly shown) [a-01-12]
0.79 | 0.073 |  | CN1CC[C@H]2C[C@H]1C(=O)NCCCOc1c(-c3cnc(CO)s3)ccc3ncc(nc13)N2 [a-01-11]
0.81 | 0.065 |  | Cc1ncc(-c2ccc3ncc4cc3c2OCC(F)CNC(=O)[C@@H]2C[C@H](CCN2C)N4)cn1 (stereo partly shown) [a-02-16]
3.9 | 0.102 |  | Cc1ncc(-c2ccc3ncc4cc3c2OCC2(CC2)COC(=O)[C@@H]2C[C@H](CCN2C)N4)cn1 [a-02-19]
1.6 |  | 0.113 | Cc1ncc(-c2ccc3ncc4nc3c2OCC(F)CNC(=O)[C@@H]2C[C@H](CCN2C)N4)cn1 (stereo partly shown) [a-01-19]
0.86 | 0.036 |  | Cc1ncc(-c2ccc3ncc4cc3c2OCC(F)CNC(=O)[C@@H]2C[C@H](CC(C)N2C)N4)cn1 (stereo partly shown) [a-02-09]
